“Also recorded” adds a separate entry of the source. Read-outs that look alike come from different tables or passages of the source.
Key:
[1] = test system: proteinase K-resistant ASYN; assay: Immunohistochemical evaluation of proteinase K-resistant ASYN in brain sections, 3-month study; format: in vivo, mouse; settings: for change in proteinase K-resistant ASYN immunolabeling vs vehicle-treated transgenic mice: striatum (P < 0.0001); for proteinase K-resistant ASYN immunolabeling, mean: Line 61 tg, 3 months, adjusted P <0.0001
Source text: (§1) A transgenic mouse model of Parkinson’s disease overexpressing human wild-type ASYN under the murine Thy-1 promoter on a mixed C57Bl/6 background was used in the present studies (commonly referred to Line 61)[49]. The Line 61 transgenic mouse model of Parkinson’s disease develops extensive accumulation of ASYN in areas relevant to Parkinson’s disease[49]–[51], neurodegeneration (as evidenced by loss of tyrosine hydroxylase[52],[53] and dopamine transporter immunoreactivity[18] in the striatum), inflammation, and both motor and non-motor functional deficits. Multiple cohorts of mice were transferred from the University of California, San Diego to a Neuropore-funded AAALAC-accredited vivarium facility per a laboratory service agreement between Neuropore Therapies, Inc. and the laboratory of Dr. Eliezer Masliah under institutional animal care and use committee (IACUC) Protocol S02221. All in vivo testing was conducted by Neuropore personnel under Explora Biosciences animal care and use protocol (ACUP) number E15-016-2. Three-month-old male transgenic and age-matched non-transgenic littermate control mice were used and housed up to 5 per cage. Animals received free access to food and water prior to the experiment. The vivarium ambient room temperature was monitored daily and kept within a range of 68–72 degrees Fahrenheit. Animals were kept on a 12:12 diurnal light cycle, with lights on at 0600.
(§2) Minzasolmin was dissolved in a vehicle solution consisting of 40% Captisol (CyDex Pharmaceuticals, Inc.; Kansas, USA) in sterile water and administered at a volume of 0.1 ml/20 g of body weight. Animals received a Monday–Friday daily intraperitoneal injection of vehicle, or 1 or 5 mg/kg minzasolmin for approximately 90 days. Animals received treatment up to and including a final injection 1 h prior to euthanasia. All study solutions were blind coded and experimenters were blinded to genotype and treatment group assignments for the duration of the study, ex vivo evaluations (i.e., neuropathology sample processing and imaging, videotape scoring) and through penultimate data analyses (i.e., data quality control with documented exclusions prior to unblinding; unblinding required for a priori pairwise comparisons).
(§3) All subjects were euthanized within 1 h of the last treatment and brain and blood were collected. Tissue processing and imaging methods were conducted as described previously[17],[18],[52] and performed under a lab service agreement between UCSD and Neuropore Therapies. All samples were blind coded to genotype and treatment group throughout immune-histological processing and imaging. The right hemibrain was post-fixed in phosphate-buffered 4% paraformaldehyde (pH 7.4) at 4 °C for 48 and then serially sectioned into […] thick […] sections using a vibratome. Sections were free-floated and incubated overnight at 4 °C with primary antibodies. To confirm the specificity of primary antibodies, control experiments were performed in which sections were incubated overnight in the absence of primary antibody, pre-immune serum, or primary antibody pre-adsorbed for 48 h with 20-fold excess of the corresponding peptide. Tissue collection, processing, and imaging methods were conducted as described previously. Briefly, the right hemibrain was post-fixed in phosphate-buffered 4% paraformaldehyde (pH 7.4) at 4 °C for 48 h, and then serially sectioned into 40 µm thick coronal sections using a vibratome. Sections were free-floated and incubated overnight at 4 °C with primary antibodies. To confirm the specificity of primary antibodies, control experiments were performed in which sections were incubated overnight in the absence of primary antibody (data not shown). Immunolabeled sections were imaged with a Zeiss 63× (N.A. 1.4) objective on an Axiovert 35 microscope (Zeiss, Germany). Immunolabeling was evaluated as a corrected optical density across a field of view. […]

[2] = set-up: method as in PMID 35959805; settings: normal healthy volunteers and patients with Parkinson's disease; cited from earlier work
[3] = Bioanalysis of compound levels in plasma and brain after long-term treatment; format: in vivo; settings: mouse, ip, Line 61 transgenic mice, 1 h post final dose, mean ± S.E.M.
Description: as §2
All subjects were euthanized within 1 h of the last treatment and brain and blood were collected. Tissue processing and imaging methods were conducted as described previously[17],[18],[52] and performed under a lab service agreement between UCSD and Neuropore Therapies. All samples were blind coded to genotype and treatment group throughout immune-histological processing and imaging. The right hemibrain was post-fixed in phosphate-buffered 4% paraformaldehyde (pH 7.4) at 4 °C for 48 and then serially sectioned into […] thick sagittal sections using a vibratome. Sections were free-floated and incubated overnight at 4 °C with primary antibodies. To confirm the specificity of primary antibodies, control experiments were performed in which sections were incubated overnight in the absence of primary antibody, pre-immune serum, or primary antibody pre-adsorbed for 48 h with 20-fold excess of the corresponding peptide. Tissue collection, processing, and imaging methods were conducted as described previously. Briefly, the right hemibrain was post-fixed in phosphate-buffered 4% paraformaldehyde (pH 7.4) at 4 °C for 48 h, and then serially sectioned into 40 µm thick coronal sections using a vibratome. Sections were free-floated and incubated overnight at 4 °C with primary antibodies. To confirm the specificity of primary antibodies, control experiments were performed in which sections were incubated overnight in the absence of primary antibody (data not shown). Immunolabeled sections were imaged with a Zeiss 63× (N.A. 1.4) objective on an Axiovert 35 microscope (Zeiss, Germany). Immunolabeling was evaluated as a corrected optical density across a field of view. Summary tables of statistics for each measure are presented in Supplementary Tables 1–5.
Analysis of minzasolmin by HPLC-MS/MS in plasma and brain homogenate study subject samples was conducted by PRA Health Sciences (Lenexa, KS, USA). Group means were obtained using Graph Pad Prism v. […]

total ASYN = assay: Immunohistochemical evaluation of total ASYN in brain sections, 3-month study; format: in vivo, mouse; settings: for change in total ASYN immunolabeling vs vehicle-treated Line 61 transgenic mice: hippocampus and striatum (P < 0.0001); for total ASYN immunolabeling, mean: Line 61 tg, 3 months
Source text: as §1, §2, §3

GFAP = assay: Immunolabeling of glial fibrillary acidic protein (GFAP), 3-month study; format: in vivo, mouse; settings: for change in GFAP immunolabeling vs vehicle-treated Line 61 transgenic mice: cortex and hippocampus (P < 0.0001); for GFAP immunolabeling, mean: 3 months, adjusted P <0.0001
Source text: as §1, §2, §3

## CCCC[C@H](Cc1c[nH]c2ccccc12)NC(=O)c1cnc(N2CCN(C)CC2)s1 [minzasolmin]
[1]; 1 mg/kg, cortex, hippocampus
  change in proteinase K-resistant ASYN immunolabeling vs vehicle-treated transgenic mice: statistically significant reductions; also recorded: statistically significant decreases
[1]; 5 mg/kg, cortex, hippocampus
  change in proteinase K-resistant ASYN immunolabeling vs vehicle-treated transgenic mice: statistically significant reductions; also recorded: statistically significant decreases
[1]; any examined region
  effect of dose on proteinase K-resistant ASYN, 1 vs. 5 mg/kg: no statistically significant effects
[1]; cortex, 1 mg/kg, Line 61 tg/Vehicle 242.5
  proteinase K-resistant ASYN immunolabeling, mean: 180.6
[1]; cortex, 5 mg/kg, Line 61 tg/Vehicle 242.5
  proteinase K-resistant ASYN immunolabeling, mean: 187.3
[1]; hippocampus, 1 mg/kg, Line 61 tg/Vehicle 270.1
  proteinase K-resistant ASYN immunolabeling, mean: 176.6
[1]; hippocampus, 5 mg/kg, Line 61 tg/Vehicle 270.1
  proteinase K-resistant ASYN immunolabeling, mean: 178.3
[1]; striatum, 1 mg/kg, Line 61 tg/Vehicle 266.7
  proteinase K-resistant ASYN immunolabeling, mean: 176.1
[1]; striatum, 5 mg/kg, Line 61 tg/Vehicle 266.7
  proteinase K-resistant ASYN immunolabeling, mean: 182.2
[2]
  safety and pharmacokinetic profiles: favorable
[3]; brain, 1 mg/kg i.p. daily about 90 days, read-out: [minzasolmin] Brain
  concentration at 1 h: 12.1 ± 1.5 ng/g
[3]; brain, 5 mg/kg i.p. daily about 90 days, read-out: [minzasolmin] Brain
  concentration at 1 h: 69.5 ± 4.7 ng/g
[3]; plasma, 1 mg/kg i.p. daily about 90 days, read-out: [minzasolmin] Plasma
  concentration at 1 h: 72.3 ± 7.9 ng/mL
[3]; plasma, 5 mg/kg i.p. daily about 90 days, read-out: [minzasolmin] Plasma
  concentration at 1 h: 357 ± 16.8 ng/mL
Total ASYN; 1 mg/kg, cortex (P < 0.05)
  change in total ASYN immunolabeling vs vehicle-treated Line 61 transgenic mice: statistically significant decreases; also recorded: statistically significant reductions
Total ASYN; 5 mg/kg, cortex
  change in total ASYN immunolabeling vs vehicle-treated Line 61 transgenic mice: statistically significant decreases; also recorded: statistically significant reductions
Total ASYN; cortex (P < 0.05) and hippocampus (P < 0.01), unpaired two tailed t tests
  effect of dose on total ASYN, 5 mg/kg compared to 1 mg/kg: greater reductions
Total ASYN; cortex, 1 mg/kg, corrected optical density, Line 61 tg/Vehicle 352.8, adjusted P 0.0148
  total ASYN immunolabeling, mean: 282.1
Total ASYN; cortex, 5 mg/kg, Line 61 tg/Vehicle 352.8, adjusted P <0.0001
  total ASYN immunolabeling, mean: 232.8
Total ASYN; hippocampus, 1 mg/kg, Line 61 tg/Vehicle 392.9, adjusted P <0.0001
  total ASYN immunolabeling, mean: 286.7
Total ASYN; hippocampus, 5 mg/kg, Line 61 tg/Vehicle 392.9, adjusted P <0.0001
  total ASYN immunolabeling, mean: 229.7
Total ASYN; striatum
  effect of dose on total ASYN, 1 vs. 5 mg/kg: no statistically significant effect
Total ASYN; striatum, 1 mg/kg, Line 61 tg/Vehicle 365.3, adjusted P <0.0001
  total ASYN immunolabeling, mean: 265.4
Total ASYN; striatum, 5 mg/kg, Line 61 tg/Vehicle 365.3, adjusted P <0.0001
  total ASYN immunolabeling, mean: 245.5
GFAP; 1 mg/kg
  change in GFAP immunolabeling vs vehicle-treated Line 61 transgenic mice: decreased
GFAP; 5 mg/kg
  change in GFAP immunolabeling vs vehicle-treated Line 61 transgenic mice: decreased
GFAP; cortex and hippocampus
  effect of dose on GFAP levels, 1 vs. 5 mg/kg: no statistically significant effect
GFAP; cortex, Line 61 tg/1 mg/kg (first group of that name), Line 61 tg/Vehicle 223.1
  GFAP immunolabeling, mean: 155.9
GFAP; cortex, Line 61 tg/1 mg/kg as printed (second group of that name), Line 61 tg/Vehicle 223.1
  GFAP immunolabeling, mean: 169.3
GFAP; hippocampus, Line 61 tg/1 mg/kg (first group of that name), Line 61 tg/Vehicle 350.8
  GFAP immunolabeling, mean: 271.6
GFAP; hippocampus, Line 61 tg/1 mg/kg as printed (second group of that name), Line 61 tg/Vehicle 350.8
  GFAP immunolabeling, mean: 289.7

From PMC10352257, “In vivo effects of the alpha-synuclein misfolding inhibitor minzasolmin supports clinical development in Parkinson’s disease” (NPJ Parkinson's Disease, 2023)
